Results: ChEMBL document CHEMBL3832029, “DailyMed|setid=517810a4-76bb-4739-893f-1f2ba94a5d0c | ZENATANE -isotretinoin capsule, gelatine coated”
Several values for one entry are separate records, joined by “and”; a condition that tells them apart may be missing. Identical values can stand only once.

Experiments:
Type in all cases: ADME, organism-based
[1] = (§1) Steady-state pharmacokinetic parameters of Isotretinoin following multiple oral administration of Isotretinoin to 38 pediatric patients, […], after a non-standardised meal.; set-up: route oral; settings: human, in vivo, dietary status Fed, dosed compound id 16, dosed compound name ISOTRETINOIN, regimen Multiple dose, tissue Plasma
[2] = tested on: Homo sapiens; test: as §1; set-up: route oral; settings: in vivo, po, dietary status Fed, dosed compound id 16, dosed compound name ISOTRETINOIN, regimen Multiple dose, tissue Plasma
[3] = (§2) Mean pharmacokinetics parameters for Isotretinoin following single oral administration of Isotretinoin to healthy subjects.; set-up: dose 80 mg, route oral; settings: human, in vivo, dietary status Fed, dosed compound id 16, dosed compound name ISOTRETINOIN, regimen Single dose, tissue Plasma; for AUC: po, 80 mg
[4] = tested on: Homo sapiens; test: as §2; set-up: dose 80 mg, route oral; settings: in vivo, po, dosed compound id 16, dosed compound name ISOTRETINOIN, regimen Single dose, tissue Plasma
[5] = dietary status Fasting, dose 80 mg

CC1=C(/C=C/C(C)=C/C=C/C(C)=C\C(=O)O)C(C)(C)CCC1 [ISOTRETINOIN]
Cmax ([1]; po): 732 ng/mL
AUC ([1]; po, read-out: AUC(0-12)): 5080 ng·h/mL
CL/F ([1]; route oral): 299 mL/min
Tmax ([1]; route oral): 4 h
half-life ([1]; route oral): 15.7 h
Css min [2]: 352.32 ng/mL
AUC ([3]; read-out: AUC(0-12)): 3030 ng·h/mL
AUC ([3]; read-out: AUC(0-24)): 6000 ng·h/mL
Tmax ([3]; dose 80 mg, route oral): 5.3 h
half-life ([3]; dose 80 mg, route oral): 21 h
Tmax [4, 5]: 3.2 h
t1/2 [4, 5]: 21 h
AUC(0 to inf) ([4]; dietary status Fasting): 3700 ng·h/mL
Cmax ([4]; dietary status Fasting): 301 ng/mL
AUC(0 to inf) ([4]; dietary status Fed): 10000 ng·h/mL
Cmax ([4]; dietary status Fed): 862 ng/mL and 573.25 ng/mL
Tmax ([4]; dietary status Fed): 6 h
